Results published in patent US9029410B2, “Pharmaceutical compositions for the treatment of movement disorders” (Sarah Herzog Memorial Hospital Ezrath Nashim Association, priority 2003, dated 2015).
Read-outs that look alike come from different tables or passages of the source.

Experiments:
patients [1] = conditions: Tsai and Coyle '875; low baseline levels; cited from earlier work
schizophrenia patients [2] = test: PANSS, crossover trials of D-cycloserine (pooled); format: in vivo, human; conditions: mean ± sd
Procedure: (§1) Patients fulfilled criteria for treatment resistance used in previous trials of glycine and had been receiving stable doses of olanzapine or risperidone for at least 3 months before study entry. Medication doses remained fixed throughout the study.
(§2) Methods for this study are the same as in example 1, except that D-cycloserine (50 mg/d) was used for treatment. As previously, outcome was assessed using the PANSS, SAS and AIMS. In addition, the Schedule for Assessment of Negative Symptoms (SANS) was used to provide further assessment of negative symptoms. Data are pooled from two previously published studies (Heresco-Levy et al., 1998, 2002). Because analyses were confirmatory, one-tailed statistics were used throughout.

schizophrenia patients [3] = test: SAS, crossover trials of D-cycloserine (pooled); format: in vivo, human
Procedure: as §1, §2

MPTP-treated monkeys [4] = conditions: low dose (320 or 1000 mg/kg as printed); cited from earlier work
schizophrenia patients [5] = test: AIMS, crossover trials of D-cycloserine (pooled); format: in vivo, human
Procedure: as §1, §2

MPTP-treated monkeys [6] = conditions: cited from earlier work
schizophrenia patients [7] = test: SAS, crossover trial of D-serine; format: in vivo, human
Source text: (§3) The study was approved by the appropriate institutional review boards. Seventeen stable inpatients meeting DSM-IV criteria for schizophrenia and free of other axis I diagnoses or significant medical illness were enrolled in the study. Diagnosis was established on the basis of semistructured psychiatric interviews, review of all available medical records, and confirmation by two board-certified psychiatrists. […] Medication doses remained fixed throughout the study.
(§4) After complete description of the study, written informed consent was obtained from all participating patients. The double-blind, placebo-controlled, crossover study consisted of two random-order 6-week treatment arms (glycine 0.8 g/kg/day, or placebo), separated by a 2-week adjuvant treatment washout. Patients were assessed biweekly with the Positive and Negative Syndrome Scale (PANSS), Brief Psychiatric Rating Scale (BPRS), Simpson-Angus Rating Scale (SAS), and Abnormal Involuntary Movement Scale (AIMS) performed by one trained research psychiatrist, as previously described (3). CBC and SMA-20 measures were assessed biweekly throughout the study. Trough glycine and serine serum levels were assessed at baseline and at the end of the two treatment phases. Data were analyzed by repeated measures ANOVA with within group factor of study phase (glycine/placebo) and time within study phase (pre/post), and between group factor of treatment order.
(§5) Methods: Methods for this study are the same as in example 1, except that D-serine ([…]=approx. 2.1 g/day) was used for treatment. As previously, outcome was assessed using the PANSS, SAS and AIMS. In addition, the Schedule for Assessment of Negative Symptoms (SANS) was used to provide further assessment of negative symptoms. This represents an interim analysis of an ongoing study. Data were analyzed by between-treatment t-test of change scores during D-serine or placebo treatment. Data are analyzed only from subjects (n=23) who completed both study phases.

schizophrenia patients [8] = test: AIMS, crossover trial of D-serine; format: in vivo, human
Source text: as §3, §4, §5

patients [9] = conditions: D-serine combined with clozapine; Tsai et al., 1999; cited from earlier work
schizophrenia patients [10] = test: SANS, crossover trial of D-serine; format: in vivo, human
Source text: as §3
as §4, with “The double-blind, placebo-controlled, crossover study consisted of two random-order 6-week treatment arms (glycine 0.8 g/kg/day, or placebo), separated by a 2-week adjuvant treatment washout.” left out, “order. […]” for “order.”

schizophrenia patients [11] = test: PANSS, crossover trial of D-serine; format: in vivo, human; parameters: PANSS Positive Symptoms, treatment week 6: dose or concentration left out as unconfirmed; conditions: mean ± sd
Source text: as §3, §4, §5

schizophrenia patients [12] = conditions: prior study, Heresco-Levy et al., 1999, Table 3, cited from earlier work
[13] = test system: inpatients with treatment-resistant schizophrenia
Source text: as §3, §4

schizophrenia patients [14] = conditions: prior study, Heresco-Levy et al., 1999, Table 3, cited from earlier work; remark: listed apart in the source
[15] = test system: haloperidol-treated Sprague-Dewley rats
Procedure: In this model, animals are treated chronically with antipsychotics and their vacuous chewing motions are assessed by observation.
Sprague-Dewley rats (Harlan Laboratories, Jerusalem, Israel) weighing 150 to 170 g. were used. The rats were housed in polycarbonate cages (4 in each cage), maintained under a 12 hour-12 hour dark-light (04.00-16.00 hours) cycle, and were allowed water ad libitum. In order to limit neuroleptic-induced weight gain, the food was restricted to 15 g. pellets per animal per day, as used by Andreassen et al (1996). Rats were weighed biweekly throughout the study. Room temperature was maintained at 22±2° C. All procedures were conducted in accordance with local and international laws for the care and use of laboratory animals.
For two weeks prior to the first drug injection, animals were handled daily and habituated to the animal colony and the procedures related to drug administration and video recording situation. Subsequently (week 0), rats underwent a behavior video recording session following which they were randomized to a haloperidol treatment and a control group. The rats in the treatment group received an intramuscular injection in the thigh muscles with haloperidol decanoate (Pericate, Unipharm Ltd., Tel Aviv, Israel), 100 mg/ml in sesame oil, at a dose of 0.35 mg/kg. The control rats were similarly injected with an equal volume of phosphate buffered saline (PBS). Twenty-three G hypodermic needles were used for all injections. […]
Rats underwent a video recorded behavior assessment session 30-150 minutes following the injection. Two weeks after the test day (i.e., post-test day), the video recorded behavior assessment session was repeated in order to investigate longer-term effects of the experimental treatments. […]
A trained observer, unaware of the treatment received by the rats, scored the behavior while watching the videotapes. […] The statistical significance of interaction of the between group factor and the repeated measures factor is determined in the [sequence] software package using the Rao R statistic and the F distribution. […]

[16] = test system: inpatients with treatment-resistant schizophrenia; conditions: glycine 0.8 g/kg/day; 2 patients; ceased following discontinuation
Source text: Three of the 14 patients who completed the study were women and 11 were men. Their mean age was 46.5 years (SD=9.6), the mean duration of their illness was 25.8 years (SD=11.0) and the mean duration of their current hospitalization was 3.0 years (SD=3.7).

monkeys = conditions: NR2A antagonist; cited from earlier work
Sprague-Dewley rats = test: Effects of chronic haloperidol treatment on motor activity; format: in vivo, rat
Procedure: Rats were weighed biweekly throughout the study. Room temperature was maintained at 22±2° C.

[17] = test system: neuroleptic sensitized monkeys; conditions: cited from earlier work
[18] = D-cycloserine 50 mg/d, week 6, n=26
[19] = D-cycloserine 50 mg/d, week 6 minus week 0
[20] = D-cycloserine phase, week 0, n=26
[21] = D-cycloserine 50 mg/d, week 6, mean ± sd, n=26
[22] = D-cycloserine 50 mg/d, week 6 minus week 0, mean ± sd
[23] = D-cycloserine phase, week 0, mean ± sd, n=26
[24] = D-serine phase, week 0, mean ± sd, n=23
[25] = D-serine, week 6, mean ± sd, n=23
[26] = D-serine, week 6 minus week 0, mean ± sd
[27] = during D-serine treatment, 6 weeks
[28] = glycine 0.8 g/kg/day vs placebo, 6 weeks
[29] = glycine 0.8 g/kg/day, week 6, mean, n=14
[30] = glycine phase, baseline, mean, n=14
[31] = mean (sd), reduction over 6 weeks of glycine 0.8 g/kg/day
[32] = mean (sd), reduction over 6 weeks of glycine 0.8 g/kg/day, listed as glycine

## C[C@@H](N)C(=O)O [D-alanine]
Patients [1]
  Changes in SAS or AIMS scores: no significant changes

## N[C@@H]1CONC1=O [D-cycloserine]
Schizophrenia patients [2]; [18]
  PANSS General Psychopathaology, week 6 within treatment phase: 53.8 ± 8.2
  PANSS Negative symptoms, week 6 within treatment phase: 31.4 ± 6.5
  PANSS Positive symptoms, week 6 within treatment phase: 24.6 ± 4.1
  PANSS Total Symptoms, week 6 within treatment phase: 109.7 ± 15.8
Schizophrenia patients [2]; [19]
  PANSS General Psychopathaology, Ä symptoms: −4.9 ± 6.2
  PANSS Negative symptoms, Ä symptoms: −3.2 ± 2.5
  PANSS Positive symptoms, Ä symptoms: −2.1 ± 2.6
  PANSS Total Symptoms, Ä symptoms: −10.2 ± 8.9
Schizophrenia patients [2]; [20]
  PANSS General Psychopathaology, week 0 within treatment phase: 58.7 ± 8.4
  PANSS Negative symptoms, week 0 within treatment phase: 34.6 ± 6.2
  PANSS Positive symptoms, week 0 within treatment phase: 26.7 ± 4.5
  PANSS Total Symptoms, week 0 within treatment phase: 120 ± 16.7
Schizophrenia patients [3]; D-cycloserine 50 mg/d vs placebo, t=1.77, one tailed
  Effect on Parkinsonian symptoms (SAS): nearly significant improvement
Schizophrenia patients [3]; [21]
  SAS, week 6 within treatment phase: 3.6 ± 2.1
Schizophrenia patients [3]; [22]
  SAS, Ä symptoms: −0.7 ± 1.7
Schizophrenia patients [3]; [23]
  SAS, week 0 within treatment phase: 4.3 ± 2.4
MPTP-treated monkeys [4]
  Variable delayed-response task (VDR) performance: significantly improved
Schizophrenia patients [5]; D-cycloserine 50 mg/d vs placebo, t=2.21, p<0.025, one tailed
  Effect on dyskinetic symptoms (AIMS): significant reduction
Schizophrenia patients [5]; [21]
  AIMS, week 6 within treatment phase: 3.9 ± 3
Schizophrenia patients [5]; [22]
  AIMS, Ä symptoms: −0.8 ± 1.3
Schizophrenia patients [5]; [23]
  AIMS, week 0 within treatment phase: 4.7 ± 3.1
MPTP-treated monkeys [6]
  Bradykinesia, tremor or other core Parkinsonian symptoms: did not show improvement

## N[C@H](CO)C(=O)O [D-serine]
Schizophrenia patients [7]; [24]
  SAS, treatment week 0: 4.2 ± 1.4
Schizophrenia patients [7]; [25]
  SAS, treatment week 6: 2.4 ± 0.8
Schizophrenia patients [7]; [26]
  SAS, Δ symptoms: −1.8 ± 1.3
Schizophrenia patients [7]; [27]
  Decline in Parkinsonian symptoms as rated by the SAS: 42%
Schizophrenia patients [8]; [24]
  AIMS, treatment week 0: 3.0 ± 0.8
Schizophrenia patients [8]; [25]
  AIMS, treatment week 6: 1.6 ± 1.2
Schizophrenia patients [8]; [26]
  AIMS, Δ symptoms: −1.4 ± 1.1
Schizophrenia patients [8]; [27]
  Decline in dyskinetic symptoms as rated by the AIMS: 50%
Patients [9]
  Change in SAS or AIMS scores: did not find significant change
Schizophrenia patients [10]; week 6, mean ± sd, n=23
  SANS Total (with globals), treatment week 6: 51.9 ± 8.0
Schizophrenia patients [10]; week 6 minus week 0, mean ± sd
  SANS Total (with globals), Δ symptoms: −9.0 ± 4.3
Schizophrenia patients [11]; D-serine phase, week 0, n=23
  PANSS Cognitive symptoms, treatment week 0: 8.5 ± 2.2
  PANSS Depression, treatment week 0: 5.3 ± 2.6
  PANSS Excitement, treatment week 0: 1.6 ± 1.5
  PANSS Negative symptoms, treatment week 0: 3.9 ± 4.0
  PANSS Positive Symptoms, treatment week 0: 4.2 ± 2.3
Schizophrenia patients [11]; D-serine, week 6, n=23
  PANSS Cognitive symptoms, treatment week 6: 17.1 ± 2.7
  PANSS Depression, treatment week 6: 13.8 ± 2.2
  PANSS Excitement, treatment week 6: 10.9 ± 1.4
  PANSS Negative symptoms, treatment week 6: 21.0 ± 3.5
  PANSS Positive Symptoms, treatment week 6: 13.0 ± 2.3
Schizophrenia patients [11]; D-serine, week 6 minus week 0
  PANSS Cognitive symptoms, Δ symptoms: −1.4 ± 1.3
  PANSS Depression, Δ symptoms: −1.5 ± 1.8
  PANSS Excitement, Δ symptoms: −0.7 ± 1.2
  PANSS Negative symptoms, Δ symptoms: −2.9 ± 1.9
  PANSS Positive Symptoms, Δ symptoms: −1.2 ± 1.1

## NCC(=O)O [Glycine, glycine]
Schizophrenia patients [12]
  SAS score before glycine treatment: 1.3 points
Schizophrenia patients [12]; not significant vs placebo
  SAS score after glycine treatment: 0.6 points
[13]; 6 weeks glycine, vs 0.3 point increase during placebo, p<0.02
  AIMS score decrease during glycine treatment: 1.0 point
[13]; 6 weeks glycine, vs 0.5 point increase during placebo, p<0.05
  SAS score decrease during glycine treatment: 1.3 points
[13]; [28]
  AIMS, Effect size (d): 0.6
  BPRS Total, Effect size (d): 1.6
  PANSS Cognitive Symptoms, Effect size (d): 0.9
  PANSS Depression, Effect size (d): 0.7
  PANSS Excitement, Effect size (d): 0.6
  PANSS Negative Symptoms, Effect size (d): 2.1
  PANSS Positive Symptoms, Effect size (d): 0.7
  SAS, Effect size (d): 0.6
[13]; [29]
  AIMS, Score at Week 6: 2.6
  BPRS Total, Score at Week 6: 36.6
  PANSS Cognitive Symptoms, Score at Week 6: 17.9
  PANSS Depression, Score at Week 6: 13.4
  PANSS Excitement, Score at Week 6: 12.0
  PANSS Negative Symptoms, Score at Week 6: 20.4
  PANSS Positive Symptoms, Score at Week 6: 14.0
  SAS, Score at Week 6: 4.0
[13]; glycine phase, baseline, mean, 14 inpatients on olanzapine or risperidone
  PANSS Negative Symptoms, Score at Baseline: 24.6
[13]; [30]
  AIMS, Score at Baseline: 3.6
  BPRS Total, Score at Baseline: 42.6
  PANSS Cognitive Symptoms, Score at Baseline: 19.1
  PANSS Depression, Score at Baseline: 14.4
  PANSS Excitement, Score at Baseline: 13.2
  PANSS Positive Symptoms, Score at Baseline: 15.4
  SAS, Score at Baseline: 5.3
[13]; [31]
  AIMS, % Change during glycine: 32.2 (30.4) %
  BPRS Total, % Change during glycine: 13.7 (7.5) %
  PANSS Cognitive Symptoms, % Change during glycine: 9.2 (6.8) %
  PANSS Depression, % Change during glycine: 7.4 (17.1) %
  PANSS Excitement, % Change during glycine: 10.6 (20.9) %
  PANSS Negative Symptoms, % Change during glycine: 23.3 (8.4) %
  PANSS Positive Symptoms, % Change during glycine: 11.4 (11.7) %
  SAS, % Change during glycine: 17.9 (40.1) %
[13]; [32]
  AIMS, % Change during glycine: 32.2%
  SAS, % Change during glycine: 18%
Schizophrenia patients [14]
  AIMS score before glycine treatment: 1.9
Schizophrenia patients [14]; not significant vs placebo
  AIMS score after glycine treatment: 1.4
[15]; 2 weeks after acute glycine 1.6 g/kg, p<0.07, VCM returned to pre-treatment levels
  Number of VCM at baseline vs post-test day: did not differ significantly
[15]; glycine 1.6 g/kg intraperitoneal, acute, p<0.01
  VCM frequency, glycine vs placebo group at test day: significantly lower VCM frequency
[15]; glycine 1.6 g/kg intraperitoneal, test day vs baseline, 30-150 minutes after injection, p<0.001
  Reduction in the number of VCM episodes: 82%
[16]
  Adverse effect leading to withdrawal during glycine administration: mild upper gastrointestinal tract discomfort

## N[C@H](CC(=O)CP(=O)(O)O)C(=O)O [MDL 100,453]
monkeys
  Effect on symptoms of dyskinesia: worsening symptoms of dyskinesia

## CNCC(=O)O [N-methylglycine]
Patients [1]
  Changes in SAS or AIMS scores: no significant changes

## CCCCCCCCCC(=O)OC1(c2ccc(Cl)cc2)CCN(CCCC(=O)c2ccc(F)cc2)CC1 [haloperidol, haloperidol decanoate]
Sprague-Dewley rats; haloperidol decanoate i.m. every four weeks, 24 weeks, p<0.001
  Number of VCM episodes relative to rats that had received placebo: approximately 4 fold
Sprague-Dewley rats; haloperidol for 24 weeks, 5 minute observation interval, placebo 53.0±12.7
  Mean time spent in immobility: 103.2 ± 7.8 s
Sprague-Dewley rats; haloperidol for 24 weeks, p<0.0001
  Number of rearing episodes vs placebo: significantly lower
Sprague-Dewley rats; haloperidol for 24 weeks, p<0.17
  Number of grooming episodes vs controls: did not differ

## CNC1(c2ccccc2Cl)CCCCC1=O (stereo not shown) [ketamine]
[17]
  Motor effects of administration: induces bradykinesia, dystonia and salivation
